Values of other authors in patent US8389778B2, “Preparation of mannitol modification III” (Aptuit (West Lafayette), LLC, priority 2007, dated 2013).

SMILES: OC[C@@H](O)[C@@H](O)[C@H](O)[C@H](O)CO [hemihydrate, Mannitol hemihydrate]
- stability of the hemihydrate (ambient conditions): unstable under ambient conditions

SMILES: OC[C@@H](O)[C@@H](O)[C@H](O)[C@H](O)CO [modification III, mannitol]
- phase transformation of modification III into modification I on storage (kept dry, period of 5 years): did not transform into modification I over a period of 5 years
